# Reference: patent US12653191B2, “Active compound combinations” (Bayer Aktiengesellschaft, priority 2020, dated 2026)
# Several values for one entry are separate records, joined by “and”; a condition that tells them apart may be missing. Equal values may be shown once. Read-outs that look alike come from different tables or passages of the source.
# Tests used:
# Assay type in all cases: cell-based
# Cordana musae [1] = assay: in vitro-Test with fungal microorganisms, Method B (tables E9-E16); details: single active
# Summary of the method: (§1)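 Efficacy scale: 0% means growth equal to the untreated control, 100% means none detected. Compounds are dried from methanol with emulsifier before adding inoculated growth medium; incubation at 20° C., 85% relative humidity for 3 to 7 days precedes photometric inhibition readout.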
# Cordana musae [2] = assay: in vitro-Test with fungal microorganisms, Method A (tables E1-E8); details: single substance
# Summary of the method: (§2)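 Growth inhibition was measured photometrically at 620 nm 3–5 days after application, with 100% efficacy meaning no growth and 0% meaning growth equal to the untreated control. Fungal spore or mycelium suspension in potato dextrose broth was added onto solvent-evaporated compound and incubated at 20° C and 85% relative humidity.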
# Colletotrichum coccodes = assay: in vitro-Test with fungal microorganisms, Method B (tables J1-J11)
# Summary of the method: as §1
# Fusarium culmorum = assay: in vitro-Test with fungal microorganisms, Method B (tables G5-G15)
# Summary of the method: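 Read photometrically at 600 nm after 3-7 days at 20° C and 85% relative humidity, Fusarium culmorum growth inhibition is expressed against untreated control. Wells hold solvent-evaporated compound (from methanol/emulsifier) overlaid with spore- or mycelium-amended growth medium.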
# Alternaria alternata = assay: in vitro-Test with fungal microorganisms, Method B (tables A13-A22)
# Summary of the method: as §1
# Diaporthe citri [3] = assay: in vitro-Test with fungal microorganisms, Method B (tables F12-F15)
# Description: (§3) Example: In Vitro-Test with Fungal Microorganisms
# (§4) Wells of 96-well microtiter plates are filled with 30 μl of a preparation of test compound or compound combination in methanol+emulsifier alkylaryl-polyglycol-ether. Thereafter, the solvent is evaporated in a hood. At the next step, 200 μl of liquid growth medium is given, that has been amended with an appropriate concentration of spores or mycelium suspension of the test fungus.
# (§5) With the aid of a photometer, the extinction in all wells is measured at the wavelength of 600 nm.
# (§6) The microtiter plates are incubated for 3 to 7 days at 20° C. and 85% relative humidity. After the incubation inhibition of growth is determined photometrically. Efficacy is calculated in relation to the untreated control, 0% efficacy means fungal growth as high as in untreated control while 100% efficacy means no fungal growth is measured.
# (§7) The data in tables A1 to A12, B1 to B14, C1 to C10, D1 to D8, E1 to E8, F1 to F11, G1 to G4, H1 to H4 and I1 to I5 were collected according to Method A. The data in tables A13 to A22, B15 to B18, C11 to C20, E9 to E16, F12 to F15, G5 to G15, H5 to H8, I6 to I11 and J1 to J11 were collected according to Method B.
# [4] = tested on: Colletotrichum lindemuthianum; assay: in vitro-Test with fungal microorganisms, Method A (tables D1-D8); details: mixing partner alone
# Summary of the method: as §2
# Cercospora beticola = assay: in vitro-Test with fungal microorganisms, Method B (tables C11-C20)
# Summary of the method: as §1
# Diaporthe citri [5] = assay: in vitro-Test with fungal microorganisms, Method A (tables F1-F11)
# Summary of the method: as §2
# [6] = tested on: Ustilago segetum var. avenae; assay: in vitro-Test with fungal microorganisms, Method B (tables I6-I11)
# Summary of the method: as §1
# Parastagonospora nodorum = assay: in vitro-Test with fungal microorganisms, Method B (tables H5-H8); details: Parastagonospora nodorum, read-out: Efficacy
# Description: as §3, §4, §5, §6, §7
# [7] = single active compound at 20 ppm
# [8] = single active compound at 100 ppm
# [9] = single active compound, 100 ppm
# [10] = Fusarium culmorum, alone, read-out: Efficacy
# [11] = Fusarium culmorum, single active compound, read-out: Efficacy
smiles,measurement,setting,value
"N#Cc1ccccc1NC(=O)c1snc(Cl)c1Cl [(6.002) isotianil, isotianil]",Efficacy,Cordana musae [1]; 0.8 ppm,9%
same,Efficacy,Cordana musae [1]; 4 ppm,15% and 18%
same,Efficacy,Cordana musae [1]; 20 ppm,10% and 18%
same,Efficacy,Cordana musae [1]; 100 ppm,7%
same,Efficacy %,Cordana musae [2]; 0.8 ppm,9%
same,Efficacy %,Cordana musae [2]; 4.0 ppm,6%
same,Efficacy %,Cordana musae [2]; 20.0 ppm,0%
same,Efficacy %,Colletotrichum coccodes; [7],0%
same,Efficacy %,Colletotrichum coccodes; [8],0%
same,Efficacy,"Fusarium culmorum; single active compound, 0.8 ppm",7%
same,Efficacy,"Fusarium culmorum; single active compound, 4 ppm",16%
same,Efficacy,"Fusarium culmorum; single active compound, 20 ppm",14%
same,Efficacy,Fusarium culmorum; [9],20%
same,Efficacy,Alternaria alternata; 4 ppm,0%
same,Efficacy,Alternaria alternata; 20 ppm,0%
same,Efficacy,Alternaria alternata; 100 ppm,15%
same,Efficacy,"Alternaria alternata; single compound, 0.8 ppm",0%
same,Efficacy,"Alternaria alternata; single compound, 20 ppm",11%
same,Efficacy,"Diaporthe citri [3]; Table F14, 0.8 ppm alone",10%
same,Efficacy,"Diaporthe citri [3]; Table F14, 4 ppm alone",9%
same,Efficacy,"Diaporthe citri [3]; Table F14, 20 ppm alone",5%
same,Efficacy,"Diaporthe citri [3]; Table F14, 100 ppm alone",19%
same,Efficacy %,[4]; 0.8 ppm,0%
same,Efficacy %,[4]; 4.0 ppm,9%
same,Efficacy %,[4]; 20.0 ppm,3%
same,Efficacy %,[4]; 100.0 ppm,0%
same,Efficacy %,Cercospora beticola; 4 ppm,8%
same,Efficacy %,Cercospora beticola; 20 ppm,3%
same,Efficacy %,"Cercospora beticola; single compound, 100 ppm",0%
same,Efficacy,"Diaporthe citri [5]; Table F11, 0.8 ppm alone",0%
same,Efficacy,"Diaporthe citri [5]; Table F11, 4.0 ppm alone",22%
same,Efficacy,"Diaporthe citri [5]; Table F11, 20.0 ppm alone",37%
same,Efficacy,"Diaporthe citri [5]; Table F11, 100.0 ppm alone",0%
same,Efficacy,"Diaporthe citri [5]; applied alone, 0.8 ppm",29%
same,Efficacy,"Diaporthe citri [5]; applied alone, 4.0 ppm",5%
same,Efficacy,"Diaporthe citri [5]; applied alone, 20.0 ppm",15%
same,Efficacy,"Diaporthe citri [5]; applied alone, 100.0 ppm",16%
same,Efficacy,"Diaporthe citri [5]; single active, 0.8 ppm",0%
same,Efficacy,"Diaporthe citri [5]; single active, 4.0 ppm",12%
same,Efficacy,"Diaporthe citri [5]; single active, 20.0 ppm",14%
same,Efficacy,"Diaporthe citri [5]; single active, 100.0 ppm",18%
CCO[PH](=O)[O-].CCO[PH](=O)[O-].CCO[PH](=O)[O-].[Al+3] [(15.012) fosetylal],Efficacy %,Colletotrichum coccodes; 0.8 ppm,0%
same,Efficacy %,Colletotrichum coccodes; 4 ppm,0%
same,Efficacy %,Colletotrichum coccodes; 20 ppm,0%
same,Efficacy %,Colletotrichum coccodes; single active compound at 0.8 ppm,27%
same,Efficacy %,Colletotrichum coccodes; single active compound at 4 ppm,0%
same,Efficacy %,Colletotrichum coccodes; [7],2%
same,Efficacy %,Colletotrichum coccodes; [8],15%
same,Efficacy,"Fusarium culmorum; single active compound, 4 ppm",5%
same,Efficacy,"Fusarium culmorum; single active compound, 20 ppm",11%
same,Efficacy,Fusarium culmorum; [9],30%
same,Efficacy,"Diaporthe citri [3]; Table F12, 0.8 ppm alone",13%
same,Efficacy,"Diaporthe citri [3]; Table F12, 4 ppm alone",7%
same,Efficacy %,[6]; 0.8 ppm,2%
same,Efficacy %,[6]; 20 ppm,0%
"CCN(C)C=Nc1cc(C)c(Oc2cccc(SC(F)(F)C(F)F)c2)cc1C [(1.067), N′-(2,5-dimethyl-4-{3-[(1,1,2,2-tetrafluoro-ethyl)sulfanyl]-phenoxy}phenyl)-N-ethyl-N-methyl-imidoformamide]",inhibition of growth at 0.08 ppm,"Cordana musae [1]; Neocordana musae, 0.08 ppm, read-out: Efficacy",0%
same,inhibition of growth at 0.4 ppm,"Cordana musae [1]; Neocordana musae, 0.4 ppm, read-out: Efficacy",14%
same,inhibition of growth at 2 ppm,"Cordana musae [1]; Neocordana musae, 2 ppm, read-out: Efficacy",100%
same,inhibition of growth at 0.4 ppm,"Colletotrichum coccodes; Colletotrichum coccodes, 0.4 ppm, read-out: Efficacy %",0%
same,inhibition of growth at 2 ppm,"Colletotrichum coccodes; Colletotrichum coccodes, 2 ppm, read-out: Efficacy %",99%
same,inhibition of growth at 0.08 ppm,"Colletotrichum coccodes; Colletotrichum coccodes, single active compound at 0.08 ppm, read-out: Efficacy %",1%
same,inhibition of growth at 0.4 ppm,"Colletotrichum coccodes; Colletotrichum coccodes, single active compound at 0.4 ppm, read-out: Efficacy %",12%
same,inhibition of growth at 2 ppm,"Colletotrichum coccodes; Colletotrichum coccodes, single active compound at 2 ppm, read-out: Efficacy %",97%
same,inhibition of growth at 0.08 ppm,Fusarium culmorum; [10],30%
same,inhibition of growth at 0.4 ppm,"Fusarium culmorum; Fusarium culmorum, 0.4 ppm, alone, read-out: Efficacy",26%
same,inhibition of growth at 2 ppm,Fusarium culmorum; [10],99%
same,inhibition of growth at 0.08 ppm,Fusarium culmorum; [11],22%
same,inhibition of growth at 2 ppm,Fusarium culmorum; [11],97%
same,inhibition of growth at 2 ppm,"Alternaria alternata; Alternaria alternata, 2 ppm, read-out: Efficacy",74%
same,inhibition of growth at 0.08 ppm,"[6]; alone, 0.08 ppm, read-out: Efficacy %",100%
same,inhibition of growth at 0.08 ppm,"Cercospora beticola; Cercospora beticola, single compound, 0.08 ppm, read-out: Efficacy %",0%
same,inhibition of growth at 0.4 ppm,"Cercospora beticola; Cercospora beticola, single compound, 0.4 ppm, read-out: Efficacy %",68%
same,inhibition of growth at 2 ppm,"Cercospora beticola; Cercospora beticola, single compound, 2 ppm, read-out: Efficacy %",100%
same,inhibition of growth at 0.08 ppm,Parastagonospora nodorum; 0.08 ppm,94%
same,inhibition of growth at 0.4 ppm,Parastagonospora nodorum; 0.4 ppm,100%
